Results on two compounds are retold here after PMC8179358, “An explicitly designed paratope of amyloid-β prevents neuronal apoptosis in vitro and hippocampal damage in rat brain” (Chemical Science, 2020).

*1 amine or outer side, *2 acyl side, *3 side chain or, on linkers, in order; H or OH if unused. Where a SMILES comes first, the peptide text is derived from it. Bridges are numbered along the chain shown (N, C = ends). Roman numbers before positions name the chains, in order. [ ]: non-standard residue; d: D form. X1 = O=C(CCCCC(=O)[*:2])NCCCOCCOCCOCCCNC(=O)CCC(=O)[*:1]; NMeF = CN[C@@H](Cc1ccccc1)C(=O)O; NMeL = CN[C@@H](CC(C)C)C(=O)O; NMeV = CN[C@H](C(=O)O)C(C)C

In one experiment the target is T1, Aβ40 (Homo sapiens, UniProt P05067).
T1 construct: 15N labeled (a) Aβ40 (80 μM)
Description: Thioflavin T assay, inhibition of Aβ40 amyloid formation. It is filed as biochemical. Particulars: ThT assay; Aβ40 50 μM; 5-fold molar excess; PBS 50 mM pH 7.4, 3% DMSO, 37 °C. On the procedure:
First, we monitored the kinetics of the amyloid formation of Aβ40 (50 μM) by thioflavin T (ThT) assay (Fig. 2a and b). The Aβ40 peptide alone aggregated with time, with a growth saturation point around 72 h, as evident from the surge in ThT fluorescence intensity. […] Green-gold birefringence appears to be a standard result of Aβ40 aggregation under cross-polarized light post-staining with Congo red dye. Owing to amyloid formation, Aβ40 appears as green-gold birefringence (Fig. 2d) under cross-polarized light when stained with Congo red.
400μL of the sample was taken in a cuvette of 1mm path length. Three measurements were accumulated.
Spectra were recorded from 190nm to 260nm on a JASCO J-1500 instrument. […]
1.5 mg of commercially available Aβ40 peptide was taken and disaggregated by TFA (50μ L) and evaporated under nitrogen gas. […] To obtain precise results, two more replicate solutions of each portion were prepared (total number of samples for this experiment was 27), and fibrillization was monitored by various biophysical tools. […]
b. Thioflavin T Fluorescence Assay
A stock solution of Thioflavin T (ThT) of concentration 50μM in PBS (50mM, pH 7.4) was prepared and stored at 4 °C with the proper protection to prevent degradation from light. […] For fluorescence studies, 40μLof peptide sample was mixed with 200μL of ThT solution (50μM), and the total volume was made up to 400μL using PBS. […]

Another experiment relates to SH-SY5Y cells. Description: LDH release assay, Aβ40 induced membrane damage. It is filed as cell-based, human. The note with it: Aβ40 10 μM, 24 h. On the procedure: Then, we explored the membrane damage induced by Aβ40 (ref. [45] and [46]) using the lactate dehydrogenase (LDH) assay.
The release of cytosolic enzyme lactate dehydrogenase (LDH) into the culture medium indicates cell death due to the disruption of membrane integrity. Cell deathwas assessed by measuring LDH release in the culture medium by photocolorimetric kit according to the manufacturer’s protocol (Abcam, Cambridge, MA, USA). An increase in the number of lysed cell increases LDH activity in the culture medium proportionately. […]
Next, 50 µl culture supernatant was collected from each well and added to an assay mixture that was prepared by adding an equal amount of LDH substrate, co-factors, and dye solutions and incubated in the dark for 40mins at 37°C. […] Absorbance was measured at 490 nm with a reference filter of 660nm. […]
Generation of intracellular reactive oxygen species was measured by a spectrofluorimetric method using peroxide sensitive fluorescent probe 2′,7′-Dichlorofluorescin diacetate (DCFH-DA).11 In brief, SH-SY5Y […]
or both for 24h. […] Cells were then washed twice with PBS, and fluorescent intensity was measured by using a fluorescence microplate reader (Bio Rad, CA, USA) with an excitation filter of 490 nm and an emission filter of 520 nm.
For orientation: Release of lactate dehydrogenase indicates damage to the cell membrane.

T1 sequence (P05067 672-711 limits assumed): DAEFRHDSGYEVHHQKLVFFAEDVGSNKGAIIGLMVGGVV

As to `CC(C)C[C@H](NC(=O)CNC(=O)CCC(=O)NCCCOCCOCCOCCCNC(=O)CCCCC(=O)NCC(=O)N(C)[C@@H](CC(C)C)C(=O)N[C@H](C(=O)N(C)[C@@H](Cc1ccccc1)C(=O)N[C@@H](Cc1ccccc1)C(=O)N[C@@H](C)C(N)=O)C(C)C)C(=O)N(C)[C@H](C(=O)N[C@@H](Cc1ccccc1)C(=O)N(C)[C@@H](Cc1ccccc1)C(=O)N[C@@H](C)C(N)=O)C(C)C` [SP1] (I: GL[NMeV]F[NMeF]A-NH2 / II: G[NMeL]V[NMeF]FA-NH2; linker I:N-II:N via X1), on Aβ40, the “inhibition of Aβ40 amyloid formation” value is around 66%. On to “Aβ40: commercially available Aβ40 peptide”, for which the “LDH release by Aβ40 alone” value in the experiment on SH-SY5Y cells was “released a significant amount of cytosolic LDH”.
